US20250170248A1, “SMARCA DEGRADERS AND USES THEREOF” (Kymera Therapeutics, Inc., priority 2021, published 2025)

Key:
Assay type in all cases: cell-based
[1] = molecular target: T1, SMARCA2 (Homo sapiens, UniProt P51531); assay: MSD SMARCA2 degradation in A549 cell line; settings: for Dmax: A549, A549 cells; for Dmax / DC50: 24 h; for DC50 / SMARCA2 MSD A549 degradation 24 h: Average Dmax %: A549 cells; for DC50: read-out: SMARCA2 MSD A549 degradation 24 h: Average external-Abs DC50
How it was run: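 A549 cells treated 24 h with compound, 3-fold series from 1000 nM. Lysates captured on MSD plates and SMARCA2 quantified with anti-SMARCA2 and SULFO-TAG secondary antibodies (electrochemiluminescence). DC50 and Dmax (% degradation at 24 h) reported as letter bins.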

[2] = molecular target: T2, SMARCA4 (Homo sapiens, UniProt P51532); assay: SMARCA4 Western blot degradation in MV4-11 cells; settings: for Dmax: MV4-11, MV4-11 cells, read-out: SMARCA4 MSD MV411 degradation 24 h: average Dmax %; for Dmax / DC50: 24 h; for DC50 / SMARCA4 MSD MV411 degradation 24 h: average Dmax %: MV4-11 cells; for DC50: read-out: SMARCA4 MSD MV411 degradation 24 h: Mean external-Abs DC50
T2 construct: SMARCA2/SMARCA4 protein degradation selectivity in MV4-11 cells; endogenous in cells; host or cells: MV4-11
T2 sequence (P51532 whole entry): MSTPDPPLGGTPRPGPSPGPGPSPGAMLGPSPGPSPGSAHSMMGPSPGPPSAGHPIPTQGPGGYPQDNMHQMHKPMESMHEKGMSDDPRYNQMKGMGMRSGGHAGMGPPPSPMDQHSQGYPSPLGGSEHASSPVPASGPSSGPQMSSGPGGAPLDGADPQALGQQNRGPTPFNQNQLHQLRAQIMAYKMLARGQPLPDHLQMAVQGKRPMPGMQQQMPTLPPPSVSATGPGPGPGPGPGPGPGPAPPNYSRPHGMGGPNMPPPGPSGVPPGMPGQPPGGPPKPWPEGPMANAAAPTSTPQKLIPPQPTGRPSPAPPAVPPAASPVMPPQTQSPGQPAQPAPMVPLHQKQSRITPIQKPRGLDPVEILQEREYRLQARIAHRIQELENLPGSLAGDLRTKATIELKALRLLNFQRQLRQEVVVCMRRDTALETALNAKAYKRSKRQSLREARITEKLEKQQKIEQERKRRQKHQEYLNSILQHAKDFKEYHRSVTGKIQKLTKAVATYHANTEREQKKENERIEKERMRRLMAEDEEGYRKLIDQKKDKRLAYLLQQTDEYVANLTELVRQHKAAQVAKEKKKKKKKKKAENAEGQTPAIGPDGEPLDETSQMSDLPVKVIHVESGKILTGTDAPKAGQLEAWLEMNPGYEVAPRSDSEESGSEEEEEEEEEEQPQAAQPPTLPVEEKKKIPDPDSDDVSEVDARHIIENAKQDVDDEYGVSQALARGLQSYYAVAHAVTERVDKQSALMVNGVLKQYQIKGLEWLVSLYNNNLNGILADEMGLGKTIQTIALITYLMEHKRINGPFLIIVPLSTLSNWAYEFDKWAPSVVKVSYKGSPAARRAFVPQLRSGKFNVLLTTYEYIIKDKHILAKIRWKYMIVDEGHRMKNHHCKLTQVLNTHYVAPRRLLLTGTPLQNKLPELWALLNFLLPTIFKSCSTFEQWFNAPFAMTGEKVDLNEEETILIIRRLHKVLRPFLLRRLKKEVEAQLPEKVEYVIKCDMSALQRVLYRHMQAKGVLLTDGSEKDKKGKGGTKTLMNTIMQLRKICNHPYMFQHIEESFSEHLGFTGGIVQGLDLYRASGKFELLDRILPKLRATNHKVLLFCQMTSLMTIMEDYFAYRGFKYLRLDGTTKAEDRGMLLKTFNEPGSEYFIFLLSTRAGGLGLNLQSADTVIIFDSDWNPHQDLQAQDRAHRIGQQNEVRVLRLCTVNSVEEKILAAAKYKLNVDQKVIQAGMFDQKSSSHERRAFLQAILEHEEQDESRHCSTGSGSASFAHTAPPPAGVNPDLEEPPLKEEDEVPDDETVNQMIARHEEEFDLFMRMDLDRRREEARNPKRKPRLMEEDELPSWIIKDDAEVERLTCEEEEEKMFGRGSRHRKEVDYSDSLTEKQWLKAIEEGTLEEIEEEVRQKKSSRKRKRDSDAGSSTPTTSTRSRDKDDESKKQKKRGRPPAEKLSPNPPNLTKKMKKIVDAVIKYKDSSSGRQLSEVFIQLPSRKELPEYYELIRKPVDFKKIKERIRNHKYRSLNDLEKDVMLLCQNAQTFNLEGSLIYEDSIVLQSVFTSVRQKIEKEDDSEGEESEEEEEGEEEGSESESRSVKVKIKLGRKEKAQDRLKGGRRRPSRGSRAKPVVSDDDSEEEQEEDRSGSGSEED
How it was run: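 MV4-11 cells (4×10^6/well) treated with compound for 24 h, lysed in RIPA with protease/phosphatase inhibitors, and SMARCA2, SMARCA4 and beta-actin detected by Western blot with LI-COR readout. Values reported as letter-coded DC50, 24 h Dmax % and SMARCA2/4 selectivity fold.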

[3] = molecular target: T1, SMARCA2; assay: SMARCA2 Western blot degradation in MV4-11 cells; set-up: SMARCA2/SMARCA4 protein degradation selectivity in MV4-11 cells; endogenous in cells; host or cells: MV4-11; settings: for Dmax: MV4-11, MV4-11 cells, read-out: SMARCA2 MSD MV411 degradation 24 h: average Dmax %; for Dmax / DC50 / SMARCA2 MSD MV411 degradation 24 h: average Dmax %: 24 h; for DC50 / Selectivity in MV411 / SMARCA2 MSD MV411 degradation 24 h: average Dmax %: MV4-11 cells; for DC50: read-out: SMARCA2 MSD MV411 degradation 24 h: Mean external-Abs DC50; for Selectivity in MV411: SMARCA2/4 selectivity

T1 sequence (P51531 whole entry): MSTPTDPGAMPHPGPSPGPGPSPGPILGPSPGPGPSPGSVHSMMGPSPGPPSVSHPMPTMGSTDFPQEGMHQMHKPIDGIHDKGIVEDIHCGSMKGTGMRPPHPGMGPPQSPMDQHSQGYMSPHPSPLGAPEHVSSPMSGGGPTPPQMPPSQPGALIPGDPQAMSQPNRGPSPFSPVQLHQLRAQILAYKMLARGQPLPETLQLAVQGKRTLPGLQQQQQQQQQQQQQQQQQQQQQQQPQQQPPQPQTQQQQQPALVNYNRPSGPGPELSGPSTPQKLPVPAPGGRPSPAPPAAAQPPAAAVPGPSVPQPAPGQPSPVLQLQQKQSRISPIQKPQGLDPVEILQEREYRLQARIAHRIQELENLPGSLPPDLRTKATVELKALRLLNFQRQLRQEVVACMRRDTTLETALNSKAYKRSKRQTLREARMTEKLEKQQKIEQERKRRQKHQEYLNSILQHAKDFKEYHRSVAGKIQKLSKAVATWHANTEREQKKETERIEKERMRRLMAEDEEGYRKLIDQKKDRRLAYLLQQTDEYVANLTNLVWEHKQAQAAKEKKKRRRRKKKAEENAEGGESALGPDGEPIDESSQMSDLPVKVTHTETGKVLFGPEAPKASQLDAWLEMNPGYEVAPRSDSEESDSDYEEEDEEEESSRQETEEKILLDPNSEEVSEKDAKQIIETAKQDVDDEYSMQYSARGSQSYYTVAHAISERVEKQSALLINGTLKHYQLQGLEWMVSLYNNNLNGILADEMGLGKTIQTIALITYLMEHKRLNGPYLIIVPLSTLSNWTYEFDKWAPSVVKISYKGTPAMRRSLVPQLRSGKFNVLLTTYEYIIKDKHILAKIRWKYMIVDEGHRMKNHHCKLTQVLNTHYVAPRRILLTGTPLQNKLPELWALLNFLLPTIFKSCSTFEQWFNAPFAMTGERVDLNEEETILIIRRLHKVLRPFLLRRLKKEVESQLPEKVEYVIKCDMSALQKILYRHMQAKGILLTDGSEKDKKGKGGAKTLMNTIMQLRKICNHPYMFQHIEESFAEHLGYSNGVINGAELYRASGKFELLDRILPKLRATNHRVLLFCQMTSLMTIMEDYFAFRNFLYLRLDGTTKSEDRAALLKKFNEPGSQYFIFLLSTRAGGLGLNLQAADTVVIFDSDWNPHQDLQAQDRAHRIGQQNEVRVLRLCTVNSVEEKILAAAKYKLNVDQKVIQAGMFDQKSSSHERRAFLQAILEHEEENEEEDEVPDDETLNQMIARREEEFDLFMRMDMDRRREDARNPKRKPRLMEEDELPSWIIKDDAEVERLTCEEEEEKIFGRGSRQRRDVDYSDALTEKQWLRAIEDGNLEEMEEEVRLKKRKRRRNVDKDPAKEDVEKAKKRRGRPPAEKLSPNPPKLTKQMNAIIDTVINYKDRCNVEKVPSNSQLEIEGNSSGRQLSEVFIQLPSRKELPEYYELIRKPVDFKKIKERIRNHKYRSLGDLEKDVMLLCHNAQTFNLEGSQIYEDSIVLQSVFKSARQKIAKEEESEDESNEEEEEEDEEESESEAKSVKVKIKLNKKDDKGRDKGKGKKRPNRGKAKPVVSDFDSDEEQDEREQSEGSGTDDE

Structure (SMILES) | Dmax [1] [%] | DC50 [1] [nM] | Dmax [2] [%] | DC50 [2] [nM] | Dmax [3] [%] | DC50 [3] [nM] | Selectivity in MV411 [3] | SMARCA2 MSD A549 degradation 24 h: Average Dmax % [1] | SMARCA4 MSD MV411 degradation 24 h: average Dmax % [2] | SMARCA2 MSD MV411 degradation 24 h: average Dmax % [3]
C#Cc1ccc(CNC(=O)[C@@H]2C[C@@H](O)CN2C(=O)[C@@H](NC(=O)N2CCN(CC3CCN(c4cnc(N5CCc6[nH]c7nnc(-c8ccccc8O)cc7c6[C@H]5C)nc4)CC3)CC2)C(C)(C)C)cc1 [I-159] | > 90 | > 100 | 50 to 70 | > 100 | 50 to 70 | 10 to 100 | B (B (>100-500 fold)) |  |  | 
Cc1ncsc1-c1ccc(CNC(=O)[C@@H]2C[C@@H](O)CN2C(=O)[C@@H](NC(=O)N2CC3(CC(N4CCC(c5cnc(N6CCN7c8cc(-c9ccccc9O)nnc8NC[C@H]7C6)nc5)CC4)C3)C2)C(C)(C)C)cc1 [I-64] | > 90 | 10 to 50 | 50 to 70 | 10 to 100 | > 90 | 1 to 10 | C (C (10-100 fold)) |  |  | 
C#Cc1ccc(CNC(=O)[C@@H]2C[C@@H](O)CN2C(=O)[C@@H](NC(=O)N2CCC[C@H](CN3CCC(N4CCC(N5CCN6c7cc(-c8ccccc8O)nnc7NC[C@H]6C5)CC4)CC3)C2)C(C)(C)C)cc1 [I-256] | < 50 | > 100 | < 50 | > 100 | < 50 | > 100 | D (D (<10 fold)) |  |  | 
C#Cc1ccc(CNC(=O)[C@@H]2C[C@@H](O)CN2C(=O)[C@@H](NC(=O)[C@H]2CCC3(CC2)C[C@H](N2CCC(N4CCC(N5CCN6c7cc(-c8ccccc8O)nnc7NC[C@H]6C5)CC4)CC2)C3)C(C)(C)C)c(OC)c1 (stereo partly drawn) [I-178] |  | > 100 |  | > 100 |  | 10 to 100 | B (B (>100-500 fold)) | A (A (>90% degradation)) | C (C (50-70% degradation)) | B (B (>70-90% degradation))
C#Cc1ccc(CNC(=O)[C@@H]2C[C@@H](O)CN2C(=O)[C@@H](NC(=O)[C@H]2CC3(C2)C[C@H](N2CCC(N4CCC(N5CCN6c7cc(-c8ccccc8O)nnc7NC[C@H]6C5)CC4)CC2)C3)C(C)(C)C)c(O)c1 (single isomer, unassigned) [I-241] | > 90 | 50 to 100 | 70 to 90 | 10 to 100 | > 90 | 1 to 10 | C (C (10-100 fold)) |  |  | 
C#Cc1ccc(CNC(=O)[C@@H]2C[C@@H](O)CN2C(=O)[C@@H](NC(=O)[C@H]2CCC3(CC2)C[C@H](N2CCC(N4CCC(N5CCN6c7cc(-c8ccccc8O)nnc7NC[C@H]6C5)CC4)CC2)C3)C(C)(C)C)c(OC)c1 (single isomer, unassigned) [I-177] | > 90 | > 100 | 50 to 70 | > 100 | 70 to 90 | 10 to 100 | C (C (10-100 fold)) |  |  | 
C#Cc1ccc(CNC(=O)[C@@H]2C[C@@H](O)CN2C(=O)[C@@H](NC(=O)N2CC3(CC(N4CCC(c5cnc(N6CCc7[nH]c8nnc(-c9ccccc9O)cc8c7[C@H]6CC)nc5)CC4)C3)C2)C(C)(C)C)cc1 [I-136] | > 90 | 10 to 50 | 70 to 90 | > 100 | 70 to 90 | 1 to 10 | C (C (10-100 fold)) |  |  | 
C#Cc1ccc(CNC(=O)[C@@H]2C[C@@H](O)CN2C(=O)[C@@H](NC(=O)N2CCN(C[C@H]3CC[C@@H](N4CCc5[nH]c6nnc(-c7ccccc7O)cc6c5[C@H]4C)CC3)CC2)C(C)(C)C)cc1 [I-199] | > 90 | > 100 | < 50 | > 100 | 50 to 70 | 10 to 100 | C (C (10-100 fold)) |  |  | 
C#Cc1ccc(CNC(=O)[C@@H]2C[C@@H](O)CN2C(=O)[C@@H](NC(=O)C2CCN(C[C@H]3CC[C@@H](N4CCc5[nH]c6nnc(-c7ccccc7O)cc6c5[C@H]4C)CC3)CC2)C(C)(C)C)cc1 (single isomer, unassigned) [I-201] | > 90 | > 100 | 50 to 70 | > 100 | 70 to 90 | 1 to 10 | C (C (10-100 fold)) |  |  | 
Cc1ncsc1-c1ccc(CNC(=O)[C@@H]2C[C@@H](O)CN2C(=O)[C@@H](NC(=O)[C@H]2CC3(C2)C[C@H](N2CCN(c4cnc(N5CCc6[nH]c7nnc(-c8ccccc8O)cc7c6[C@H]5C)nc4)CC2)C3)C(C)(C)C)cc1 (single isomer, unassigned) [I-76] | > 90 | 10 to 50 | 50 to 70 | > 100 | 70 to 90 | 1 to 10 | C (C (10-100 fold)) |  |  | 
C#Cc1cc(F)c(CNC(=O)[C@@H]2C[C@@H](O)CN2C(=O)[C@@H](NC(=O)N2CC3(CC(N4CCC(c5cnc(N6CCc7[nH]c8nnc(-c9ccccc9O)cc8c7[C@H]6C)nc5)CC4)C3)C2)C(C)(C)C)cc1F [I-403] | > 90 | 10 to 50 | 70 to 90 | > 100 | 70 to 90 | 10 to 100 | C (C (10-100 fold)) |  |  | 
C#Cc1ccc(CNC(=O)[C@@H]2C[C@@H](O)CN2C(=O)[C@H](NC(=O)N2CC3(CC(N4CCC(c5cnc(N6CCc7[nH]c8nnc(-c9ccccc9O)cc8c7[C@H]6C)nc5)CC4)C3)C2)C(C)(C)CCN2CCN[C@H](C(=O)O)C2)cc1 [I-343] | < 50 | > 100 | < 50 | > 100 | < 50 | > 100 | C (C (10-100 fold)) |  |  | 
C#Cc1ccc([C@H](C)NC(=O)[C@@H]2C[C@@H](O)CN2C(=O)[C@@H](NC(=O)[C@H]2CCC3(CC2)C[C@H](N2CCN(c4cnc(N5CCN6c7cc(-c8ccccc8O)nnc7NC[C@H]6C5)nc4)CC2)C3)C(C)(C)C)cc1 (single isomer, unassigned) [I-233] | > 90 | 10 to 50 | 50 to 70 | > 100 | 70 to 90 | 1 to 10 | C (C (10-100 fold)) |  |  | 
Cc1cc(Cl)ccc1C#CCNC(=O)[C@@H]1C[C@@H](O)CN1C(=O)[C@@H](NC(=O)[C@H]1CCC2(CC1)C[C@H](N1CCC(c3cnc(N4CCN5c6cc(-c7ccccc7O)nnc6NC[C@H]5C4)nc3)CC1)C2)C(C)(C)C (single isomer, unassigned) [I-104] |  | > 100 | 70 to 90 | > 100 | < 50 | > 100 | C (C (10-100 fold)) | A (A (>90% degradation)) |  | 
C#Cc1ccc(CNC(=O)[C@@H]2C[C@@H](O)CN2C(=O)[C@@H](NC(=O)[C@H]2CCC3(CC2)C[C@H](N2CCC(c4cnc(N5CCN6c7cc(-c8ccccc8O)nnc7NC[C@H]6C5)nc4)CC2)C3)C(C)(C)C)c(F)c1 (single isomer, unassigned) [I-116] |  | 10 to 50 |  | > 100 |  | 1 to 10 | B (B (>100-500 fold)) | A (A (>90% degradation)) | D (D (<50% degradation)) | B (B (>70-90% degradation))
